Measured values reported in PubChem BioAssay (NCI).
Where “and” joins values, the source holds several entries; their conditions need not be identical. Identical values can stand only once.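 Interpolation was linear, between the two tested concentrations surrounding the appropriate level; five concentrations were tested over 48 hours in 96-well plates. Here, GI50 denotes the concentration required for 50% inhibition of growth. TGI marks complete inhibition of growth.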

Legend:
Assay in all cases: NCI anticancer screen, dose series, 48 h
[1] = system: EKVX NSCLC
[2] = system: HCC-2998 colon
[3] = system: SK-OV-3 ovarian
[4] = system: MALME-3M melanoma
[5] = system: MOLT-4 leukemia
[6] = system: SK-MEL-2 melanoma
[7] = system: PC-3 prostate
[8] = system: T-47D breast
[9] = system: HOP-92 NSCLC
[10] = system: MDA-N
[11] = system: SF-295 CNS
[12] = system: 786-0 renal
[13] = system: SF-268 CNS
[14] = system: NCI-H460 lung
[15] = system: A498 renal
[16] = system: SF-539 CNS
[17] = system: KM12 colon
[18] = system: SNB-75 CNS
[19] = system: OVCAR-3 ovarian
[20] = system: UACC-62 melanoma
[21] = system: NCI-H522 lung
[22] = system: HS 578T breast
[23] = system: A549 NSCLC
[24] = system: OVCAR-5 ovarian
[25] = system: HL-60(TB) leukemia
[26] = system: OVCAR-8 ovarian
[27] = system: UACC-257 melanoma
[28] = system: MDA-MB-435
[29] = system: HOP-62 NSCLC
[30] = system: SNB-19 CNS
[31] = system: TK-10 renal
[32] = system: SN12C renal
[33] = system: DU-145 prostate
[34] = system: SK-MEL-28 melanoma
[35] = system: NCI/ADR-RES ovarian
[36] = system: HT29 colon
[37] = system: U251 CNS
[38] = system: SW-620 colon
[39] = system: COLO 205 colon
[40] = system: MDA-MB-231 breast
[41] = system: CCRF-CEM leukemia
[42] = system: ACHN renal
[43] = system: HCT-15 colon
[44] = system: RPMI-8226 leukemia
[45] = system: SR leukemia
[46] = system: CAKI-1 renal
[47] = system: OVCAR-4 ovarian
[48] = system: NCI-H23 lung
[49] = system: M14 melanoma
[50] = system: IGROV1 ovarian
[51] = system: UO-31 renal
[52] = system: LOX IMVI melanoma
[53] = system: RXF 393 renal
[54] = system: HCT-116 colon
[55] = system: BT-549 breast
[56] = system: SK-MEL-5 melanoma
[57] = system: K-562 leukemia
[58] = system: MCF7 breast
[59] = system: NCI-H226 lung

C[C@H](CCC(=O)O)[C@H]1CC[C@H]2[C@@H]3CC[C@@H]4C[C@H](O)CC[C@]4(C)[C@H]3CC[C@]12C
GI50 [1]: > 100 µM and 20 µM
TGI [1]: > 100 µM and 69 µM
GI50 [2]: > 100 µM and 19.8 µM
TGI [2]: > 100 µM and 40.2 µM
GI50 [3]: > 100 µM and 40.3 µM
TGI [3]: > 100 µM
GI50 [4]: > 100 µM and 40.2 µM
TGI [4]: > 100 µM and 74.1 µM
GI50 [5]: > 100 µM and 21.5 µM
TGI [5]: > 100 µM and 52.3 µM
GI50 [6]: > 100 µM and 21.5 µM
TGI [6]: > 100 µM and 45.6 µM
GI50 [7]: > 100 µM and 23.9 µM
TGI [7]: > 100 µM and 57.6 µM
GI50 [8]: > 100 µM and 19.9 µM
TGI [8]: > 100 µM and 46.1 µM
GI50 [9]: > 100 µM and 34.1 µM
TGI [9]: > 100 µM and 99.2 µM
GI50 [10]: > 100 µM and 19.9 µM
TGI [10]: > 100 µM and 46.3 µM
GI50 [11]: > 100 µM and 37.2 µM
TGI [11]: > 100 µM
GI50 [12]: > 100 µM and 31.8 µM
TGI [12]: > 100 µM
GI50 [13]: > 100 µM and 36 µM
TGI [13]: > 100 µM
GI50 [14]: > 100 µM and 18.2 µM
TGI [14]: > 100 µM and 32.3 µM
TGI [15]: > 100 µM
GI50 [16]: > 100 µM and 27.6 µM
TGI [16]: > 100 µM and 61 µM
GI50 [17]: > 100 µM and 24.4 µM
TGI [17]: > 100 µM and 67.2 µM
GI50 [18]: 44.6 µM and 24.6 µM
TGI [18]: > 100 µM and 59.4 µM
GI50 [19]: > 100 µM and 19 µM
TGI [19]: > 100 µM and 33.3 µM
GI50 [20]: > 100 µM and 35.3 µM
TGI [20]: > 100 µM
GI50 [21]: > 100 µM and 25.5 µM
TGI [21]: > 100 µM and 54.5 µM
GI50 [22]: > 100 µM and 33.3 µM
TGI [22]: > 100 µM and 65.8 µM
GI50 [23]: > 100 µM and 18.4 µM
TGI [23]: > 100 µM and 46.2 µM
GI50 [24]: > 100 µM and 20.7 µM
TGI [24]: > 100 µM and 60.3 µM
GI50 [25]: > 100 µM and 15.1 µM
TGI [25]: > 100 µM and 32.8 µM
GI50 [26]: > 100 µM and 41.3 µM
TGI [26]: > 100 µM
GI50 [27]: > 100 µM and 28.3 µM
TGI [27]: > 100 µM and 67.6 µM
GI50 [28]: > 100 µM and 22.6 µM
TGI [28]: > 100 µM and 50.8 µM
GI50 [29]: > 100 µM and 28.2 µM
TGI [29]: > 100 µM and 73.8 µM
GI50 [30]: > 100 µM and 24.3 µM
TGI [30]: > 100 µM and 90.7 µM
GI50 [31]: > 100 µM and 33.6 µM
TGI [31]: > 100 µM and 83.3 µM
GI50 [32]: > 100 µM and 20.8 µM
TGI [32]: > 100 µM and 56.1 µM
GI50 [33]: 86.7 µM and 30 µM
TGI [33]: > 100 µM and 87.7 µM
GI50 [34]: > 100 µM and 27 µM
TGI [34]: > 100 µM and 85.3 µM
GI50 [35]: > 100 µM and 29.3 µM
TGI [35]: > 100 µM and 82.4 µM
GI50 [36]: > 100 µM and 21.6 µM
TGI [36]: > 100 µM and 57.7 µM
GI50 [37]: > 100 µM and 21.3 µM
TGI [37]: > 100 µM and 43.7 µM
GI50 [38]: > 100 µM and 27 µM
TGI [38]: > 100 µM and 78.7 µM
GI50 [39]: > 100 µM and 25.5 µM
TGI [39]: > 100 µM and 54.6 µM
GI50 [40]: > 100 µM and 28.3 µM
TGI [40]: > 100 µM and 73.2 µM
GI50 [41]: > 100 µM
TGI [41]: > 100 µM
GI50 [42]: > 100 µM and 37.8 µM
TGI [42]: > 100 µM
GI50 [43]: > 100 µM and 23.5 µM
TGI [43]: > 100 µM and 62.3 µM
GI50 [44]: > 100 µM and 22.9 µM
TGI [44]: > 100 µM and 52.7 µM
GI50 [45]: > 100 µM and 14.6 µM
TGI [45]: > 100 µM and 32.8 µM
GI50 [46]: > 100 µM and 22.2 µM
TGI [46]: > 100 µM and 47.1 µM
GI50 [47]: > 100 µM and 32 µM
TGI [47]: > 100 µM and 84.5 µM
GI50 [48]: > 100 µM and 17.9 µM
TGI [48]: > 100 µM and 33.7 µM
GI50 [49]: > 100 µM and 17.3 µM
TGI [49]: > 100 µM and 42 µM
GI50 [50]: > 100 µM and 40 µM
TGI [50]: > 100 µM
GI50 [51]: > 100 µM and 14.3 µM
TGI [51]: > 100 µM and 27.3 µM
GI50 [52]: > 100 µM and 28.9 µM
TGI [52]: > 100 µM and 80.3 µM
GI50 [53]: > 100 µM and 26 µM
TGI [53]: > 100 µM and 62.4 µM
GI50 [54]: > 100 µM and 18.4 µM
TGI [54]: > 100 µM and 33.2 µM
GI50 [55]: > 100 µM and 28.4 µM
TGI [55]: > 100 µM and 74.7 µM
GI50 [56]: > 100 µM and 18.3 µM
TGI [56]: > 100 µM and 35.3 µM
GI50 [57]: > 100 µM and 17.4 µM
TGI [57]: > 100 µM and 43.8 µM
GI50 [58]: > 100 µM and 36.5 µM
TGI [58]: > 100 µM
GI50 [59]: > 100 µM and 37 µM
TGI [59]: > 100 µM

COc1ccc(O)c(/C=N/NC(=S)N2CCCCC2)c1
TGI [1]: > 65.3 µM
TGI [2]: 19.6 µM
TGI [3]: > 100 µM
TGI [4]: 37.3 µM
TGI [5]: > 100 µM
TGI [6]: > 100 µM
TGI [7]: > 100 µM
TGI [8]: > 89.5 µM
TGI [9]: 50.8 µM
TGI [10]: > 100 µM
TGI [11]: > 100 µM
TGI [12]: > 78.2 µM
TGI [13]: 62.9 µM
TGI [14]: > 30.1 µM
TGI [15]: > 41.5 µM
TGI [16]: > 100 µM
TGI [17]: > 100 µM
TGI [18]: > 100 µM
TGI [19]: > 13.4 µM
TGI [20]: 23.8 µM
TGI [21]: > 62.7 µM
TGI [22]: > 100 µM
TGI [23]: > 100 µM
TGI [24]: > 100 µM
TGI [25]: > 23.1 µM
TGI [26]: > 43.1 µM
TGI [27]: > 100 µM
TGI [28]: > 100 µM
TGI [29]: > 20.1 µM
TGI [30]: > 94.9 µM
TGI [31]: > 100 µM
TGI [32]: > 100 µM
TGI [33]: > 43.1 µM
TGI [34]: > 83.4 µM
TGI [35]: > 23.2 µM
TGI [36]: > 92.3 µM
TGI [37]: > 100 µM
TGI [38]: > 100 µM
TGI [39]: > 100 µM
TGI [40]: > 100 µM
TGI [41]: > 47.8 µM
TGI [42]: 23.3 µM
TGI [43]: > 100 µM
TGI [44]: > 27.2 µM
TGI [45]: > 24.5 µM
TGI [46]: > 84.1 µM
TGI [47]: > 100 µM
TGI [48]: 20.4 µM
TGI [49]: 10.9 µM
TGI [50]: > 67.4 µM
TGI [51]: 6.22 µM
TGI [52]: > 46 µM
TGI [53]: > 100 µM
TGI [54]: > 100 µM
TGI [55]: > 94.8 µM
TGI [56]: 30.9 µM
TGI [57]: > 21.8 µM
TGI [58]: > 100 µM
TGI [59]: 7.96 µM

O=C(/C=C/NC(=O)OCc1ccccc1)OCc1ccccc1
TGI [1]: > 100 µM
TGI [2]: > 100 µM
TGI [3]: > 100 µM
TGI [4]: > 100 µM
TGI [5]: > 100 µM
TGI [6]: > 100 µM
TGI [7]: > 100 µM
TGI [8]: > 100 µM
TGI [9]: > 100 µM
TGI [10]: > 100 µM
TGI [11]: > 100 µM
TGI [12]: > 100 µM
TGI [13]: > 100 µM
TGI [14]: > 100 µM
TGI [15]: > 100 µM
TGI [16]: > 100 µM
TGI [17]: > 100 µM
TGI [18]: > 100 µM
TGI [19]: > 100 µM
TGI [20]: > 100 µM
TGI [21]: > 100 µM
TGI [22]: > 100 µM
TGI [23]: > 100 µM
TGI [24]: > 100 µM
TGI [25]: > 100 µM
TGI [26]: > 100 µM
TGI [27]: > 100 µM
TGI [28]: > 100 µM
TGI [29]: > 100 µM
TGI [30]: > 100 µM
TGI [31]: > 100 µM
TGI [32]: > 100 µM
TGI [33]: > 100 µM
TGI [34]: > 100 µM
TGI [35]: > 100 µM
TGI [36]: > 100 µM
TGI [37]: > 100 µM
TGI [38]: > 100 µM
TGI [39]: > 100 µM
TGI [40]: > 100 µM
TGI [41]: > 100 µM
TGI [42]: > 100 µM
TGI [43]: > 100 µM
TGI [44]: > 100 µM
TGI [45]: > 100 µM
TGI [46]: > 100 µM
TGI [47]: > 100 µM
TGI [48]: > 100 µM
TGI [49]: > 100 µM
TGI [50]: > 100 µM
TGI [51]: > 100 µM
TGI [52]: > 100 µM
TGI [53]: > 100 µM
TGI [54]: > 100 µM
TGI [55]: > 100 µM
TGI [56]: > 100 µM
TGI [57]: > 100 µM
TGI [58]: > 100 µM
TGI [59]: > 100 µM
